Data: ChEMBL document CHEMBL1137933, “Pseudodeflectusin, a novel isochroman derivative from Aspergillus pseudodeflectus a parasite of the sea weed, Sargassum fusiform, as a selective human cancer cytotoxin” (Bioorg Med Chem Lett, 2004)

What was measured:
Gamma-secretase = experiment: Inhibition of human gamma-secretase activity; assay type: protein-complex assay
Mus musculus [1] = experiment: Compound was tested for reduction in Abeta-protein levels in brain after 3 hr in Tg2576 beta-APP-swedish transgenic mice at a single dose of 200 umol/kg; assay type: functional
Mus musculus [2] = experiment: Compound was tested for reduction in Abeta-protein levels in plasma of Tg2576 beta-APP-swedish transgenic mice at a single dose of 200 umol/kg; assay type: functional
Mus musculus [3] = experiment: Compound was tested for reduction in Abeta-protein levels in the CNS of Tg2576 beta-APP-swedish transgenic mice after oral administration; assay type: functional, Central nervous system
Mus musculus [4] = experiment: Compound was tested for reduction in Abeta-protein levels in brain of Tg2576 mice 3h after oral administration at 200 umol/kg; assay type: functional
Mus musculus [5] = experiment: Compound was tested for reduction in plasma level of Tg2576 mice 3h after oral administration at 200 umol/kg; assay type: functional
Mus musculus [6] = experiment: Compound was tested for reduction in brain Abeta-protein level of Tg2576 mice 3h after oral administration at 200 umol/kg; assay type: functional

Compound | IC50 (Gamma-secretase) [nM] | also measured
CC(C)N1C(=O)c2ccccc2C(NC(=O)[C@H](C)NC(=O)Cc2ccncc2)C(=O)N1C (stereo not given in full) | > 2500 | 
C[C@H](NC(=O)Cc1cc(F)cc(F)c1)C(=O)NC1C(=O)N(C)c2ccccc2-c2ccccc21 (stereo not given in full) | 76 | 
CCCCN(C)C(=O)[C@H](CC1CCCCC1)NC(=O)[C@H](CC(C)C)NC(=O)[C@@H](O)c1ccccc1 | 1 | Activity (Mus musculus [1]): 65 nM; Activity (Mus musculus [2]): 1833 nM; Reduction (Mus musculus [3]): 15%
CC(C)C[C@H](NC(=O)Cc1cc(F)cc(F)c1)C(=O)Nc1cnc(-c2ccccc2)n(C)c1=O | 720 | 
CC(C)N1C(=O)c2ccccc2C(NC(=O)[C@H](C)NC(=O)Cc2cccnc2)C(=O)N1C (stereo not given in full) | > 2500 | 
C[C@H](NC(=O)Cc1cc(F)cc(F)c1)C(=O)NC1C(=O)N(C)N(C)C(=O)c2ccccc21 (stereo not given in full) | 5 | Reduction (Mus musculus [4]): 43%; Activity (Mus musculus [5]): 2987 nM; Activity (Mus musculus [6]): 77 nM
CC(C)N1C(=O)c2ccccc2C(NC(=O)[C@H](C)NC(=O)Cc2cccc3ccccc23)C(=O)N1C (stereo not given in full) | > 2500 | 
CC(C)N1C(=O)c2ccccc2C(NC(=O)[C@H](C)NC(=O)Cc2cc(C(F)(F)F)cc(C(F)(F)F)c2)C(=O)N1C (stereo not given in full) | > 2500 | 
CC(C)C[C@H](NC(=O)[C@@H](O)c1ccccc1)C(=O)N[C@H]1c2ccccc2C[C@H]1O | 71 | 
CC(C)[C@H](NC(=O)Cc1cc(F)cc(F)c1)C(=O)NC1C(=O)N(C)N(C(C)C)C(=O)c2ccccc21 (stereo not given in full) | 190 | 
CC(C)C[C@H](NC(=O)Cc1cc(F)cc(F)c1)C(=O)NC1C(=O)N(C)C(c2ccccc2)=NC1(C)C (stereo not given in full) | 1500 | 
CC(C)N1C(=O)c2ccccc2C(NC(=O)[C@H](C)NC(=O)Cc2ccco2)C(=O)N1C (stereo not given in full) | 86 | 
CC(C)N1C(=O)c2ccccc2C(NC(=O)[C@H](C)NC(=O)Cc2cccc(F)c2)C(=O)N1C (stereo not given in full) | 57 | 
COc1cc(CC(=O)N[C@@H](C)C(=O)NC2C(=O)N(C)N(C(C)C)C(=O)c3ccccc32)cc(OC)c1 (stereo not given in full) | > 2500 | 
CC(C)N1C(=O)c2ccccc2C(NC(=O)[C@H](C)NC(=O)Cc2ccccc2)C(=O)N1C (stereo not given in full) | 140 | 
C[C@H](NC(=O)Cc1cc(F)cc(F)c1)C(=O)NC1N=C(c2ccccc2)c2ccccc2N(C)C1=O (stereo not given in full) | 210 | 
CC(C)N1C(=O)c2ccccc2C(NC(=O)[C@H](C)NC(=O)CC2CCCCC2)C(=O)N1C (stereo not given in full) | 150 | 

Further molecules by falling IC50 (Gamma-secretase), results first:

IC50 (Gamma-secretase) [nM] | Compound | also measured
47 | CC(C)N1C(=O)c2ccccc2C(NC(=O)[C@H](C)NC(=O)Cc2cc(F)cc(F)c2)C(=O)N1C (stereo not given in full) | 
38 | CC(C)N1C(=O)c2ccccc2C(NC(=O)[C@H](C)NC(=O)Cc2ccoc2)C(=O)N1C (stereo not given in full) | 
37 | CC(C)C[C@H](NC(=O)Cc1cc(F)cc(F)c1)C(=O)NC1C(=O)N(C)N(C(C)C)C(=O)c2ccccc21 (stereo not given in full) | 
14 | CC(C)N1C(=O)c2ccccc2C(NC(=O)[C@H](C)NC(=O)Cc2ccsc2)C(=O)N1C (stereo not given in full) | 
6 | CCCCN(C)C(=O)[C@H](CC1CCCCC1)NC(=O)[C@H](CC(C)C)NC(=O)Cc1cc(F)cc(F)c1 | 
5 | CC(C)N1C(=O)c2ccccc2C(NC(=O)[C@H](C)NC(=O)[C@@H](O)c2cc(F)cc(F)c2)C(=O)N1C (stereo not given in full) | 
4 | CC(C)C[C@H](NC(=O)Cc1ccsc1)C(=O)NC1C(=O)N(C)N(C(C)C)C(=O)c2ccccc21 (stereo not given in full) | 
